Experimental data from patent US9700552B2, “Pharmaceutical compositions for treatment of addiction” (priority 2008, dated 2017).
Read-outs that look alike come from different tables or passages of the source.

Assays:
[1] = Solubility of naltrexone in adhesive matrix; assay type: physicochemical
Source text: […]. Adhesive matrices having such Hildebrand solubility parameters are typically, although not necessarily polyacrylate copolymers. […].

[2] = in vivo, cited from earlier work
[3] = in vivo; cited from earlier work

SMILES: O=C1CC[C@@]2(O)[C@H]3Cc4ccc(O)c5c4[C@@]2(CCN3CC2CC2)[C@H]1O5 [naltrexone]
- solubility of naltrexone in adhesive ([1]; in DURO-TAK® 87-900A): 5.851 g/100 g of polymer
- solubility of naltrexone in adhesive ([1]; in DURO-TAK® 87-2510): 3.067 g/100 g of polymer
- safety statement [2]: major liver toxin
- safety statement ([2]; listed as Naltrexone): very few and minor side effects

SMILES: Oc1ccc2c3c1O[C@H]1[C@H](O)CC[C@@]4(O)[C@@H](C2)N(CC2CC2)CC[C@]314 [6-β-naltrexol]
- mean elimination half-life [3]: thirteen
